In patent publication US20250367231A1, “MULTIFUNCTIONAL BIOADHESIVE DESIGNED WITH CHEMICAL FUNCTIONALITY INDUCED SUTURED BIOLOGICAL BUILDING BLOCKS” (The Regents of the University of California, priority 2022, published 2025):

Conditions: ambient conditions; for time to change in color (self-oxidation of catechol moieties): aqueous solution
Excerpt: Dopamine (Dopa), a naturally derived neurotransmitter molecule^[4], also resembles with the key moiety in mussel foot proteins (catechol)^[11] and has been intensely utilized to develop adhesive biomaterials with diverse clinical importance^[12]. In view of the biological relevance of multifunctional catecholic moieties, herein, Dopa skeleton was chemically modified with a nitro-group to modulate the electronic properties of the aromatic ring^[13] (FIG. 1a). To use the nitro incorporated dopamine (nDopa) moiety for designing functional biomaterials, it was further covalently conjugated with a methacrylate group through an amide linkage (FIG. 1a).

| Structure (SMILES) | time to change in color (self-oxidation of catechol moieties) [h] | time without self-oxidation [days] |
| --- | --- | --- |
| NCCc1ccc(O)c(O)c1 [Dopa, dopamine] | 1 | – |
| C=C(C)C(=O)NCCc1ccc(O)c(O)c1 [MAD, methacrylated dopamine] | 24 | – |
| C=C(C)C(=O)NCCc1cc(O)c(O)cc1[N+](=O)[O-] [nMAD, methacrylated nitro-dopamine] | – | > 7 |
